Measurements taken from patent publication US20260193236A1 (Protego Biopharma, Inc., priority 2022, published 2026).

Tested on: IRE1-XBP1s (XBP1-RLuc splicing reporter in HEK293 T-REx cells)
Experiment: IRE1-XBP1s activation assay (XBP1-RLuc splicing reporter, HEK293 T-REx cells, luminescence relative to thapsigargin)
Type: cell-based
Conditions: 18 h, compound 10 μM, HEK293 T-REx XBP1-RLuc reporter cells, relative to thapsigargin (Tg) 500 nM, read-out: Activity (IRE1-XBP1s activation, luminescence as % signal relative to thapsigargin, % Tg)
Method: IRE1-XBP1s activation Assay: HEK293 T-REx cells stably expressing the XBP1-RLuc splicing reporter were treated with an IRE1-XBP1s activator provided herein (10 μM) in the presence or absence of the IRE1 active site inhibitor 4μ8C (32 μM) for 18 h. Luminescence was shown as the percentage signal relative to thapsigargin (Tg) (500 nM, 18 h).

## C#CCCC1(CCC(=O)Nc2ncccc2OCCC(=O)Nc2cnn(CC(=O)N(C)CCOc3ccc(C)cc3)c2)N=N1 [Compound 296, 3-(3-but-3-ynyldiazirin-3-yl)-N-[3-[3-[[1-[2-[methyl-[2-(4-methylphenoxy)ethyl]amino]-2-oxo-ethyl]pyrazol-4-yl]amino]-3-oxo-propoxy]-2-pyridyl]propanamide]
  activation at 10 µM: < 30%
